The record followed here is patent publication US10947203B2, “1,4,5-substituted 1,2,3-triazole analogues as antagonists of the pregnane X receptor” (ST. JUDE CHILDREN'S RESEARCH HOSPITAL, priority 2016, dated 2021).

Structures are written as SMILES.

Test [1] deals with primary human hepatocytes (PHHs). As to the kind of experiment: midazolam metabolism in primary human hepatocytes pretreated with hPXR agonist. As to conditions: 10 μM test compound; 72 hr pretreatment with DMSO, 1.6 μM RIF, 0.5 or 5 μM PTX; then 3.3 μM MDZ 4 h; FIG. 1A. The format is cell-based.
Description: (§1) The concentrations of 1′-OH MDZ (MDZ metabolite) in the media of each pretreatment condition were determined using LC/MS/MS as described in the Examples. […] PHHs were also treated with 1 μM of PTX in the absence and presence of 10 μM of the test compound, and then the concentrations of major PTX metabolites, 3-OH PTX (by CYP3A4) and 6α-OH PTX (by CYP2C8), were determined using LC/MS/MS at 24 hr and 48 hr of treatment, respectively.
(§2) Midazolam and 1-OH midazolam were from BD Gentest. Midazolam-D4 maleate (internal standard, IS) was from Cerilliant; Paclitaxel and 3′-p-hydroxypaclitaxel were from Sigma; and 6u-hydroxy Paclitaxel was from Cayman Chemical. 100 μl of reaction medium at each different time point was collected and 200 μl of acetonitrile containing IS was added. This solution was then vigorously mixed for 10 min and centrifuged at 10,000 rpm for 10 min. Calibration and quality control samples were prepared. 5 μl of the samples was injected onto a Waters Acquity UPLC BEH C18 column (2.1x 50 mm, 1.7 μm), using a Waters Acquity UPLC system. Chromatographic separation was performed by gradient elution at a constant flow rate of 1 mL/min for 15 min. The gradient consisted of 0.1% formic acid water (mobile phase A) and methanol (mobile phase B). […] Nitrogen was applied as curtain, collision and drying gas at 60 psi. […]
Test [2] concerns hPXR-mediated CYP3A4 promoter reporter activity. Briefly: CYP3A4 promoter reporter activity in hPXR-CYP3A4-luc reporter mice (bioluminescence imaging). The test is classed as in vivo, mouse. Particulars: RIF 10 mg/kg plus test compound 150 mg/kg every 24 h for 2 days; imaging 10 h after last treatment; FIG. 4.
Description: Individual mouse received 3 rounds of sequential treatment of vehicle control (Vehicle), RIF (10 mg/kg) and RIF (10 mg/kg) plus the test compound (150 mg/kg) every 24 h for 2 days, respectively, with a washout period of 72-hour between two rounds of treatment. The luciferase activity in these reporter mice was recorded by bioluminescence imaging 10 h after the last treatment of each round, and the induction of CYP3A4 promoter reporter activity was calculated as described in Examples. Each data point represents the induction of CYP3A4 promoter reporter activity by the treatment in an individual mouse, and dos lines indicate the CYP3A4 promoter reporter activity change in individual mouse after following round of treatment. p values are indicated between the two treatment compared by paired t test.
10 hours after the last treatment of each round, the mice were imaged as described above. Uniform regions of interest were drawn around the liver, and total photon flux was analyzed with Living Image 3.2 software (Xenogen). The induction of CYP3A4-luc reporter activity was calculated using the imaging from the same mouse as follows: induction rate=total photon flux (after treatment)/total photon flux (before treatment).
In test [3] the test system is RIF-induced metabolism of the anesthetic (CYP3A11). Briefly: loss of righting reflex (LORR) assay in hPXR-tg mice. The test is classed as in vivo, mouse. Particulars: RIF 10 mg/kg plus test compound 200 mg/kg every 24 h for three days, FIG. 5. On the procedure:
Loss of righting reflex (LORR) duration was recorded as described in Examples to measure metabolism of the anesthetic ([…]) in hPXR-tg, mice before and after treatment with vehicle, RIF, and RIF plus the test compound as indicated. Each data point represents LORR duration in an individual mouse; lines indicate LORR duration change in individual mouse before and after treatment. P values indicate comparison of values by paired t test.
Mice were intraperitoneally injected with 250 mg/kg of 2,2,2-tribromoethanol, which is metabolically cleared only via mouse CYP3A11. After the mice lost their righting reflex, they were placed on their backs under a heat lamp. The duration of LORR was measured as the time from the start of LORR to recovery (i.e., when mice could right themselves after being placed on their backs twice within 1 min). A baseline LORR duration was established for each mouse at the administered dose of 2,2,2-tribromoethanol. […] The paired Student's t-test was used to compare LORR duration between baseline and after treatment. A P value <0.05 was considered to indicate a significant difference between compared groups.

Test [4] deals with primary human hepatocytes (PHHs). As to the kind of experiment: paclitaxel metabolism in primary human hepatocytes. As to conditions: 1 μM PTX with 10 μM test compound; 24 and 48 hr; FIGS. 1B, 1C. The format is cell-based.
Description: as §1, §2
Test [5] deals with hPXR-mediated increase in CYP3A expression. Briefly: liver Cyp3a11 mRNA and CYP3A protein in hPXR-tg mice. The format is in vivo, mouse. As to conditions: RIF 10 mg/kg plus test compound 200 mg/kg, 72 h, FIGS. 3A-3C. On the procedure: Briefly, mouse liver Cyp3a11 mRNA was analyzed by real-time PCR in hPXR-tg mice treated with vehicle control (Vehicle), RIF (10 mg/kg) or RIF (10 mg/kg) plus test compound (200 mg/kg) for 72 h. Each data point represents the level of Cyp3a11 mRNA (FIG. 3A) or protein (FIG. 3B) in an individual mouse; lines indicate the mean value for 3-7 mice per group.
hPXR-tg mice were generated previously (Xie et al., 2000). Five mice in each group were dosed orally with vehicle control or 10 mg/kg RIF, every 24 h for three days. Eight hours after the last dose, the animals were euthanized by C02 and liver tissues were harvested. A piece of each liver was preserved in RNAlater solution (Invitrogen) at 4° C. for mRNA isolation. The remaining tissue was instantly frozen in liquid nitrogen and stored at −80° C. for total protein extraction. […]

In the case of `COc1ccc(OC)c(-n2nnc(S(=O)(=O)c3ccc(C(C)(C)C)cc3)c2C)c1` [4-((4-(tert-butyl)phenyl)sulfonyl)-1-(2,5-dimethoxyphenyl)-5-methyl-1H-1,2,3-triazole], the “metabolism of MDZ (1′-OH MDZ concentration in media)” value in test [1] is recorded as “essentially blocked”. Moreover, in test [2], the “RIF-induced expression of the reporter under the control of the CYP3A4 promoter” value is “significantly reduced”. Besides, the “RIF-induced metabolism of the anesthetic, as determined by LORR duration” value in test [3] was “significantly inhibited”. Further, the “metabolism of PTX to 3-OH PTX and 6α-OH PTX” value in test [4] is reported as “effectively blocked”. The “hPXR-mediated increase in CYP3A expression (liver Cyp3a11 mRNA, CYP3A protein)” value in test [5] is on record as “inhibits the hPXR-mediated increase in CYP3A expression”.
